This experiment addresses T1, human TRPM8 (Homo sapiens, UniProt Q7Z2W7).
T1 construct: expressed in transfected cells
The experiment can be described thus: Automated patch clamp (IonFlux 16) of menthol-evoked TRPM8 currents in HEK293 cells stably expressing human TRPM8. Format: cell-based. The procedure: HEK293 cells, stably expressing human TRPM8 (GenBank number NM_024080), were cultured in T75 tissue culture flasks using Dulbecco’s modified Eagle medium (Euroclone, Pero, Italy), supplemented with 10% FBS (Euroclone, Pero, Italy) plus Geneticin (Sigma-Aldrich, St. Louis, MI, USA) 800 μg/mL at 37° C, in a humidified 5% CO2 atmosphere. The cells were maintained until they reached 70~80% confluency. Prior to use, the cells were washed twice with Ca^2+ and Mg^2+ free PBS (Euroclone, Pero, Italy), subsequently detached using Accutase (Euroclone, Pero, Italy), and kept in suspension using CHO-SFM-II medium (Gibco, by Thermo Fisher Scientific, Carlsbad, CA, USA). The cells were then resuspended in the external solution after a centrifugation at 1000 rpm for 2 min. Single-cells suspension, with a final concentration of 3–5 million cells/mL, was required for the automated patch clamp electrophysiology procedure.
We performed automated patch clamp recordings by using the IonFlux 16 system (Fluxion Biosciences, Alameda, CA, USA). The procedure includes four automated phases—prime, trap, break, and data acquisition—in the whole-cells voltage clamp. The cells were voltage clamped at a holding potential of −60 mV, stepped to −100 mV, ramped to +100 mV in 200 ms, and finally stepped back to −60 mV. Voltage command was executed every 5 s, and currents were recorded with a sampling rate of 5 kHz. […] The interval range between each application was 90 s, and intervals included washing cells with an external solution-containing vehicle. However, the duration of each application was adjusted based on each drug’s lipophilicity and kinetic of inhibition. For leakage subtraction, leakage was measured by applying a short 20 mV pulse (typically from −80 mV to −100 mV) at the beginning of each sweep to measure the current difference. By assuming linear leakage and subtracting proportional currents from each of the different voltage command segments, the software performs automatic leakage subtraction. […] The extracellular solution contained 140 mM NaCl, 4 mM KCl, 1 mM MgCl2, 10 mM glucose, and 10 mM HEPES, pH 7.4 with NaOH and 310 mOsm. We removed Ca^2+ from the external solution to avoid the Ca^2+-dependent desensitization of TRPM8. The intracellular solution contained the following (mM): 60 CsCl, 70 CsF, 5 Na2ATP, 10 HEPES, and 10 EGTA, pH 7.2 with CSOH and 295 mOsm. All recordings were performed at a temperature of 20 ± 1 °C.
All compounds were obtained from Sigma-Aldrich. Stock solutions were prepared in 50 mM of dimethyl sulfoxide (DMSO) and stored at −20° C.
The analysis of the data was carried out using the ‘data analyzer software’ (Data Analyzer v. 5.0 (beta), Fluxion Biosciences, Alameda, CA, USA), Microsoft Excel 365, and the Prism 9.0 software (GraphPad Software Inc., San Diego, CA, USA). The average current density of the last three recordings at +80 mV in each application period was used as the current amplitude.
IC50 and EC50 were calculated by fitting the four-parameter Hill equation using GraphPad Prism.
Four-parameter Hill equation: f(x)=Imin+(Imax−Imin/1+(C50/x)^h)
Data are expressed as the mean ± standard deviation (SD).

Setting [1] is: HEK293; read-out: Average Percentage Inhibition at 10 µM.
Setting [2] is: at concentrations higher than IC50, prolonged washing, data not shown.
Where [3] appears, read: read-out: IC50, inhibition of menthol-induced TRPM8 current.
The mark [4] stands for this setting: at concentrations higher than 50 µM.

Where two headings read alike, the source gives them in different places.

T1 sequence (Q7Z2W7 whole entry): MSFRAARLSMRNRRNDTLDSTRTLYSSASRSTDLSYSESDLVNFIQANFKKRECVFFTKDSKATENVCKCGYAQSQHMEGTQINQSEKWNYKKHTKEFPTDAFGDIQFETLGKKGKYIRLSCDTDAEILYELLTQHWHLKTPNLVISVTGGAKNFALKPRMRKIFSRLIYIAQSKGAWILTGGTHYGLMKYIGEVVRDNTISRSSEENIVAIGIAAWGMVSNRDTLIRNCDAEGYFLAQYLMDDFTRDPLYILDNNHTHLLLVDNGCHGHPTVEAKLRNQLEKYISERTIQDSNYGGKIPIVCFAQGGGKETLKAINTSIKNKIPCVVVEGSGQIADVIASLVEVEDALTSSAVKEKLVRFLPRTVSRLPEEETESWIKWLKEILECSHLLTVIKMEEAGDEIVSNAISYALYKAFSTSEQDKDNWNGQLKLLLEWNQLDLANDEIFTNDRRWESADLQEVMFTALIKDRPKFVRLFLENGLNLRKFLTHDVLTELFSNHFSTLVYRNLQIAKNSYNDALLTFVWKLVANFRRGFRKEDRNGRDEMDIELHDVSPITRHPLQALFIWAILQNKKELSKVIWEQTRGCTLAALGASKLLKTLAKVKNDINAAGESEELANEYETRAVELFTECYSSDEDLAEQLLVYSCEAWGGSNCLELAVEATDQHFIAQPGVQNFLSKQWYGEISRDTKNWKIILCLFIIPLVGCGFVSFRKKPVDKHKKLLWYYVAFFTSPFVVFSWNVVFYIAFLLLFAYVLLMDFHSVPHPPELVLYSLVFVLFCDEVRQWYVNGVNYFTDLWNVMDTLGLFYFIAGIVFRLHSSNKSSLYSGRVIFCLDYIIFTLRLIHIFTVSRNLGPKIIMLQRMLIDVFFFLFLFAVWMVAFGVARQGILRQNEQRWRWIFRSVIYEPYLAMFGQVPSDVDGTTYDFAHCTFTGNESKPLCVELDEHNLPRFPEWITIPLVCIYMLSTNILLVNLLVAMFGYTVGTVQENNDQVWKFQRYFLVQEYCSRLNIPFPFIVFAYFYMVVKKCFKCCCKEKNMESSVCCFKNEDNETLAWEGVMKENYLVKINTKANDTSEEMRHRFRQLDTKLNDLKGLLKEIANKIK

As for `Cc1cccc(COc2ccccc2C(=O)N(CCCN)Cc2cccs2)c1.Cl` [AMTB, N-(3-Aminopropyl)-2-[(3-methylphenyl)methoxy]-N-(2-thienylmethyl)benzamide hydrochloride], the “Block of menthol-activated currents” value (1 µM AMTB) is “fully blocked”.

Regarding `CCCC(=O)Nc1ccc(OCC(O)CNC(C)C)c(C(C)=O)c1` (stereo not drawn) [Acebutolol, acebutolol], the inhibition at 10 µM under setting [1] was found to be 0%.

With `CC(C)NCC(O)COc1ccc(CC(N)=O)cc1` (stereo not drawn) [Atenolol, atenolol], under setting [1], the inhibition at 10 µM was found to be 0%.

For `NC(=O)N1c2ccccc2C=Cc2ccccc21` [Carbamazepine, carbamazepine], the inhibition at 10 µM under setting [1] amounted to 0%.

Regarding `COc1ccccc1OCCNCC(O)COc1cccc2[nH]c3ccccc3c12` (stereo not drawn) [Carvedilol, carvedilol], the inhibition at 10 µM under setting [1] came to 57%. Further, under setting [2], the “Reversibility of the inhibiting effect on washing” value is on record as “irreversible inhibiting effect”. For the same compound, the IC50 under setting [3] came out at 9.1 ± 0.6 µM. For the same compound, for the setting “β-blocker screen”, the “Blocking effect on TRPM8 menthol-evoked currents” value (“Blocking effect” for short) is on record as “showed a blocking effect”.

`O=C(NCC1CCCCN1)c1cc(OCC(F)(F)F)ccc1OCC(F)(F)F` (stereo not drawn) [Flecainide, flecainide]: the inhibition at 10 µM under setting [1] worked out at 0%. Besides, under setting [4], the “Block of outward TRPM8 currents induced by menthol” value (from here on “Block … by menthol”) is “partial block”.

As to `NCC1(CC(=O)O)CCCCC1` [Gabapentin, gabapentin], the inhibition at 10 µM (HEK293, read-out: Average Percentage Inhibition at 10 µM) came to 0%.

As for `Nc1nnc(-c2cccc(Cl)c2Cl)c(N)n1` [Lamotrigine, lamotrigine], under setting [1], the inhibition at 10 µM was 0%.

With `COCCc1ccc(OCC(O)CNC(C)C)cc1` (stereo not drawn) [Metoprolol, metoprolol], the inhibition at 10 µM under setting [1] turned out to be 0%.

Take `Cc1cccc(C)c1OCC(C)N` (stereo not drawn) [Mexiletine, mexiletine]: the inhibition at 10 µM under setting [1] turned out to be 0%.

With `CC(C)(C)NCC(O)COc1cccc2c1CC(O)C(O)C2` (stereo not drawn) [Nadolol, nadolol], under setting [1], the inhibition at 10 µM was determined as 0%.

Regarding `OC(CNCC(O)C1CCc2cc(F)ccc2O1)C1CCc2cc(F)ccc2O1` (stereo not drawn) [Nebivolol, nebivolol], the inhibition at 10 µM under setting [1] was 100%. Besides, under setting [2], the “Reversibility of the inhibiting effect on washing” value is given as “irreversible inhibiting effect”. Also, where the note is “electrophysiological data”, the “Inhibitory effect of nebivolol compared with carvedilol” value is on record as “ten times stronger”. In addition, under setting [3], the concentration for half-maximal inhibition (IC50) was 0.97 ± 0.15 µM. Also, where the note is “β-blocker screen”, the “Blocking effect” value was “showed a blocking effect”.

As for `NC(=O)N1c2ccccc2CC(=O)c2ccccc21` [Oxcarbazepine, oxcarbazepine], the inhibition at 10 µM under setting [1] was determined as 0%.

Turning to `O=C1NC(=O)C(c2ccccc2)(c2ccccc2)N1` [Phenytoin, phenytoin], under setting [1], the inhibition at 10 µM is 0%. Further, under setting [4], the “Block … by menthol” value is “partial block”.

Regarding `CCCNCC(O)COc1ccccc1C(=O)CCc1ccccc1` (stereo not drawn) [Propafenone, propafenone], the inhibition at 10 µM under setting [1] was 26%. Further, the “Block … by menthol” value (below 50 µM) is reported as “significant blocking capacity”. Moreover, the IC50 under setting [3] turned out to be 16.8 ± 5 µM.

In the case of `CC(C)NCC(O)COc1cccc2ccccc12` (stereo not drawn) [Propranolol, propranolol], the inhibition at 10 µM under setting [1] is 12%. Moreover, the 50% inhibitory concentration (IC50) under setting [3] turned out to be 45 ± 7 µM. Besides, under “β-blocker screen”, the “Blocking effect” value is recorded as “showed a blocking effect”.

Take `COc1ccccc1OCC(O)CN1CCN(CC(=O)Nc2c(C)cccc2C)CC1` (stereo not drawn) [Ranolazine, ranolazine]: under setting [1], the inhibition at 10 µM was found to be 0%.

For `Nc1nc2ccc(OC(F)(F)F)cc2s1` [Riluzole, riluzole], under setting [1], the inhibition at 10 µM came out at 0%.

Turning to `NC(=O)c1cn(Cc2c(F)cccc2F)nn1` [Rufinamide, rufinamide], under setting [1], the inhibition at 10 µM amounted to 0%.

Take `CCCCNc1ccc(C(=O)OCCN(C)C)cc1` [Tetracaine, tetracaine]: the inhibition at 10 µM under setting [1] was found to be 0%.
